In assay [1] the test system is symmetrical dimethylation of arginine (Di-Methyl Histone H4 Arginine 3) in cell line TE11. In words: Revised PRMT5 Biomarker Assay (Di-Methyl Histone H4 Arginine 3 immunofluorescence). The assay is classed as cell-based. To be noted: Homo sapiens, TE-11, TE11 cells, 72 hours. On the procedure: Compounds of the invention may be tested for potency to inhibit symmetrical dimethylation of arginine in the following assay:
The cell line TE11 was seeded at a density of 6,000 cells per well in 96 well optical quality tissue culture plates in DME medium and 10% foetal bovine serum, and allowed to adhere for 5 hours under standard culture conditions (37 degree Celsius, 5% CO2). […] After incubation for 72 hours, the cells were fixed with 3.7% formaldehyde in PBS for 30 minutes at room temperature, washed with phosphate buffer saline and blocked with Odyssey blocking buffer (LI-COR, Lincoln, Nebr.). Rabbit anti-Di-Methyl Histone H4 Arginine 3 specific antibody (Epigentek) in Odyssey blocking buffer was added and incubated for 14 hours at 4 degree Celsius. […] Alternatively, the plates were imaged on a PerkinElmer Phenix high content imaging platform. […] The resulting mean intensity per cell was directly converted to percent inhibition as outlined above (IC50, imager based).

Assay [2] has as its target Full-length PRMT5 enzyme (NCBI Reference sequence NP_006100.2) co-expressed with His6-MEP50 (Homo sapiens (Human), UniProt O14744). In words: Revised PRMT5 Biochemical Assay. To be noted: 1 μM peptide substrate, 1 μM S-Adenosyl methionine, 4 hours at 37 degree Celsius, Transcreener EPIGEN fluorescence polarisation. The essentials:
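Full-length PRMT5 co-expressed with His6-MEP50 in insect cells (15 ng/reaction) was run with 1 μM H4-derived peptide and 1 μM SAM in PBS, 0.01% Tween-20, 0.01% albumin and 1 mM DTT for 4 h at 37 °C. Product was read by Transcreener EPIGEN fluorescence polarisation, and IC50 came from a 4-parameter fit.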
In general terms: In fluorescence polarisation assays a small probe gives low polarisation when free and higher when bound to something large.

[3] abbreviates: PerkinElmer Envision fluorescence intensity, corrected for Hoechst 33342, read-out: IC50 - plate-reader based.
[4] abbreviates: PerkinElmer Phenix high content imaging, mean intensity per cell, read-out: IC50 - image based.

Structures are written as SMILES. pIC50: −log10 of the molar value. Where a name gives a salt, the structure may show the parent alone. Read-outs that look alike come from different tables or passages of the source.

The values that follow come from patent US10494376B2, “Tetrahydroisoquinoline derived PRMT5-inhibitors” (CTXT PTY LTD, priority 2014, dated 2019).

Full-length PRMT5 enzyme (NCBI Reference sequence NP_006100.2) co-expressed with His6-MEP50, sequence (O14744 whole entry): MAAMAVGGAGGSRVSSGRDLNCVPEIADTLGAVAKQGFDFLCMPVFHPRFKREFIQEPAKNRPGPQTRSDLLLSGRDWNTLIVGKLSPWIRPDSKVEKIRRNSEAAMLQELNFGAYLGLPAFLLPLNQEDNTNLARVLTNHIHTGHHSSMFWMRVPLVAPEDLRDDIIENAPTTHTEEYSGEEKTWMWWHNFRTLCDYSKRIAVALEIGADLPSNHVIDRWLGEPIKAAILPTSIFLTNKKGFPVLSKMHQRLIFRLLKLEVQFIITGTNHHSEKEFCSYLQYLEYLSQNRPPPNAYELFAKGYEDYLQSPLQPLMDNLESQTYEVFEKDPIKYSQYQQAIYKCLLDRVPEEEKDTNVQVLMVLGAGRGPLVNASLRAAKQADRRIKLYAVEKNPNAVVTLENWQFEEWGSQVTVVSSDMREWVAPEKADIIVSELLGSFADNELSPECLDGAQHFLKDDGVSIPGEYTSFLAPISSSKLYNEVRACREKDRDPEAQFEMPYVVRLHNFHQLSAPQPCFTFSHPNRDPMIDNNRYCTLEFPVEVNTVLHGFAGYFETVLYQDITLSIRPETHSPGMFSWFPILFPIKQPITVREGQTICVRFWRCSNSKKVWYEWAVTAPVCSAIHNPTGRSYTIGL
Full-length PRMT5 enzyme (NCBI Reference sequence NP_006100.2) co-expressed with His6-MEP50, sequence (Q9BQA1 whole entry partner): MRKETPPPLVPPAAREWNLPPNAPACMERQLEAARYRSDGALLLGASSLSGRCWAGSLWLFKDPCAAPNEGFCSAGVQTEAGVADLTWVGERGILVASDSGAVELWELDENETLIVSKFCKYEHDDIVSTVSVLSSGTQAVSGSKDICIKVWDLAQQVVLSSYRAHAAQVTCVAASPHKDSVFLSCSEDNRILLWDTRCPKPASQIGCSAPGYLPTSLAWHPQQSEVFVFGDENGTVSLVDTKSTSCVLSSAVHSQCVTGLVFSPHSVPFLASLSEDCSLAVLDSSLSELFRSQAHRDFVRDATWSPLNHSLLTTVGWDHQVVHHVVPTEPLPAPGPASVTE

In general, pIC50 refers to the IC50 on a negative log10 scale, so that one unit is a factor of ten. In the case of `O=C(NC[C@@H](O)[C@@H]1Cc2ccccc2CN1)c1ccccc1` [Example 3, N-((R)-2-Hydroxy-2-((S)-1,2,3,4-tetrahydroisoquinolin-3-yl)ethyl)benzamide], the results for the pIC50 in assay [1] (setting [3]) and in assay [2] were 5.84 and 5.08, respectively.
In the case of `CCOc1ccccc1C(=O)NC[C@@H](O)[C@@H]1Cc2ccccc2CN1` [Example 8, 2-Ethoxy-N-((R)-2-hydroxy-2-((S)-1,2,3,4-tetrahydroisoquinolin-3-yl)ethyl)benzamide], the negative-log IC50 (pIC50) is 5.63 in assay [1] (setting [3]) and 4.78 in assay [2].
The corresponding values for `O=C(NC[C@@H](O)[C@@H]1Cc2ccccc2CN1)c1ccc(C(=O)N2CCOCC2)cc1F` [Example 15, 2-Fluoro-N-((R)-2-hydroxy-2-((S)-1,2,3,4-tetrahydroisoquinolin-3-yl)ethyl)-4-(morpholine-4-carbonyl)benzamide] are 7.64 and 6.42.
The corresponding values for `O=C(NC[C@@H](O)[C@@H]1Cc2ccccc2CN1)c1ccnc(OC2CCNCC2)c1` [Example 21, N-((R)-2-Hydroxy-2-((S)-1,2,3,4-tetrahydroisoquinolin-3-yl)ethyl)-2-(piperidin-4-yloxy)isonicotinamide] are 7.06 and 7.15.
For `O=C(NC[C@@H](O)[C@@H]1Cc2ccccc2CN1)c1ccnc(OC2CCOCC2)c1` [Example 26, N-((R)-2-Hydroxy-2-((S)-1,2,3,4-tetrahydroisoquinolin-3-yl)ethyl)-2-((tetrahydro-2H-pyran-4-yl)oxy)isonicotinamide bis(2,2,2-trifluoroacetic acid) salt], the values for the negative-log IC50 (pIC50) in assay [1] (setting [3]), in assay [1] (setting [4]) and in assay [2] were 7.82, 8.52 and 7.28, respectively.
In the case of `COC(=O)N1CCC(Oc2cc(C(=O)NC[C@@H](O)[C@@H]3Cc4ccccc4CN3)ccn2)CC1` [Example 27, Methyl 4-((4-(((R)-2-hydroxy-2-((S)-1,2,3,4-tetrahydroisoquinolin-3-yl)ethyl)carbamoyl)pyridin-2-yl)oxy)piperidine-1-carboxylate bis(2,2,2-trifluoroacetic acid) salt], the pIC50 is 8.15 in assay [1] (setting [3]) and 7.36 in assay [2].
The corresponding values for `O=C(NC[C@@H](O)[C@@H]1Cc2ccccc2CN1)c1ccc(C(=O)N2CCOCC2)cc1` [Example 28, N-((R)-2-Hydroxy-2-((S)-1,2,3,4-tetrahydroisoquinolin-3-yl)ethyl)-4-(morpholine-4-carbonyl)benzamide hydrochloride] are 7.92 and 6.74.
Take `O=C(NC[C@@H](O)[C@@H]1Cc2ccccc2CN1)c1ccc(C(=O)N2CCS(=O)(=O)CC2)cc1` [Example 37, 4-(1,1-Dioxidothiomorpholine-4-carbonyl)-N-((R)-2-hydroxy-2-((S)-1,2,3,4-tetrahydroisoquinolin-3-yl)ethyl)benzamide]: the pIC50 in assay [1] (setting [3]) was 6.60; in assay [2], 6.98.
With `O=C(NC[C@@H](O)[C@@H]1Cc2ccccc2CN1)c1ccc(C(=O)N2C3CCC2COC3)cc1` [Example 49, 4-(3-Oxa-8-azabicyclo[3.2.1]octane-8-carbonyl)-N—((R)-2-hydroxy-2-((S)-1,2,3,4-tetrahydroisoquinolin-3-yl)ethyl)benzamide hydrochloride], the pIC50 in assay [1] (setting [3]) was 8.22; in assay [1] (setting [4]), 9.00; in assay [2], 7.42.
Consider `CCOc1cc(C(=O)N2C3CCC2COC3)ccc1C(=O)NC[C@@H](O)[C@@H]1Cc2ccccc2CN1` [Example 50, 4-(3-Oxa-8-azabicyclo[3.2.1]octane-8-carbonyl)-2-ethoxy-N—((R)-2-hydroxy-2-((S)-1,2,3,4-tetrahydroisoquinolin-3-yl)ethyl)benzamide hydrochloride], for which the values for the negative-log IC50 (pIC50) in assay [1] (setting [3]), in assay [1] (setting [4]) and in assay [2] were 9.52, 9.52 and 7.72, respectively.
For `CC(=O)N1CCC(Nc2cc(C(=O)NC[C@@H](O)[C@@H]3Cc4ccccc4CN3)ncn2)CC1` [Example 51, 6-((1-Acetylpiperidin-4-yl)amino)-N—((R)-2-hydroxy-2-((S)-1,2,3,4-tetrahydroisoquinolin-3-yl)ethyl)pyrimidine-4-carboxamide dichloride], the pIC50 in assay [1] (setting [3]) is 7.82; in assay [2], 7.21.
In the case of `CCOc1cc(C(=O)N2C3CCCC2COC3)ccc1C(=O)NC[C@@H](O)[C@@H]1Cc2ccccc2CN1` [Example 55, 4-(3-Oxa-9-azabicyclo[3.3.1]nonane-9-carbonyl)-2-ethoxy-N—((R)-2-hydroxy-2-((S)-1,2,3,4-tetrahydroisoquinolin-3-yl)ethyl)benzamide], the results for the pIC50 in assay [1] (setting [3]), in assay [1] (setting [4]) and in assay [2] were 9.40, 9.70 and 7.80, respectively.
On to `CCOc1cc(C(=O)N2C3CCC2COC3)c(F)cc1C(=O)NC[C@@H](O)[C@@H]1Cc2ccccc2CN1` [Example 69], for which the pIC50 in assay [1] (setting [3]) was 8.52; in assay [2], 5.89.
Taken in the same sequence, the figures for `CCOc1cc(CC(=O)N2C3CCC2COC3)ccc1C(=O)NC[C@@H](O)[C@@H]1Cc2ccccc2CN1` [Example 74] were 8.30 and 6.47.
With `CCOc1cc(CC(=O)N2CCCC2)ccc1C(=O)NC[C@@H](O)[C@@H]1Cc2ccccc2CN1` [Example 79, 2-Ethoxy-N-((R)-2-hydroxy-2-((S)-1,2,3,4-tetrahydroisoquinolin-3-yl)ethyl)-4-(2-oxo-2-(pyrrolidin-1-yl)ethyl)benzamide hydrochloride], the figures for the pIC50 in assay [1] (setting [4]) and in assay [2] were 8.52 and 6.77, respectively.
`CCOc1c(C(=O)NC[C@@H](O)[C@@H]2Cc3ccccc3CN2)ccc(C(=O)N2CCOCC2)c1C` [Example 80, 2-Ethoxy-N-((R)-2-hydroxy-2-((S)-1,2,3,4-tetrahydroisoquinolin-3-yl)ethyl)-3-methyl-4-(morpholine-4-carbonyl)benzamide hydrochloride]: the pIC50 in assay [1] (setting [3]) is 8.52; in assay [2], 6.79.
Taken in the same sequence, the figures for `O=C(NC[C@@H](O)[C@@H]1Cc2ccccc2CN1)c1ccc(C(=O)N2C3CCC2COC3)cc1F` [Example 81, 4-(3-Oxa-8-azabicyclo[3.2.1]octane-8-carbonyl)-2-fluoro-N-((R)-2-hydroxy-2-((S)-1,2,3,4-tetrahydroisoquinolin-3-yl)ethyl)benzamide hydrochloride] were 8.52 and 7.29.
As to `CCOc1cc(C(=O)N2C3CCC2COC3)ncc1C(=O)NC[C@@H](O)[C@@H]1Cc2ccccc2CN1` [Example 82, 6-(3-Oxa-8-azabicyclo[3.2.1]octane-8-carbonyl)-4-ethoxy-N-((R)-2-hydroxy-2-((S)-1,2,3,4-tetrahydroisoquinolin-3-yl)ethyl)nicotinamide dihydrochloride], the negative logarithm of the IC50 (pIC50) in assay [1] (setting [4]) was 8.10; in assay [2], 6.97.
Turning to `O=C(NC[C@@H](O)[C@@H]1Cc2ccccc2CN1)c1ccc(C(=O)N2C3CCC2COC3)cc1Cl` [Example 83, 4-(3-Oxa-8-azabicyclo[3.2.1]octane-8-carbonyl)-2-chloro-N-((R)-2-hydroxy-2-((S)-1,2,3,4-tetrahydroisoquinolin-3-yl)ethyl)benzamide], the pIC50 in assay [1] (setting [3]) was 8.40; in assay [2] it was 7.19.
Turning to `O=C(NC[C@@H](O)[C@@H]1Cc2ccccc2CN1)c1ccc2nc(C(F)(F)F)[nH]c2c1` [Example 84, N-((R)-2-Hydroxy-2-((S)-1,2,3,4-tetrahydroisoquinolin-3-yl)ethyl)-2-(trifluoromethyl)-1H-benzo[d]imidazole-6-carboxamide dihydrochloride], the pIC50 in assay [1] (setting [3]) is 7.09; in assay [2], 6.91.
For the compound `COC(=O)N1CCC(Oc2ccc(C(=O)NC[C@@H](O)[C@@H]3Cc4ccccc4CN3)cn2)CC1` [Example 100, Methyl 4-((5-(((R)-2-hydroxy-2-((S)-1,2,3,4-tetrahydroisoquinolin-3-yl)ethyl)carbamoyl)pyridin-2-yl)oxy)piperidine-1-carboxylate], the pIC50 in assay [1] (setting [4]) was 7.96; in assay [2], 7.18.
The corresponding values for `O=C(NC[C@@H](O)[C@@H]1Cc2ccccc2CN1)c1ccc(N2CCOCC2)nc1` [Example 101, N—((R)-2-Hydroxy-2-((S)-1,2,3,4-tetrahydroisoquinolin-3-yl)ethyl)-6-morpholinonicotinamide] are 8.00 and 6.98.
As to `O=C(NC[C@@H](O)[C@@H]1Cc2ccccc2CN1)c1ccnc(OC2CCN(CC(F)(F)F)CC2)c1` [Example 124, N—((R)-2-Hydroxy-2-((S)-1,2,3,4-tetrahydroisoquinolin-3-yl)ethyl)-2-((1-(2,2,2-trifluoroethyl)piperidin-4-yl)oxy)isonicotinamide], the pIC50 in assay [2] is 7.15.
Same read-out and setting: the value for `CCOc1cc(C(=O)N2C3CCC2COC3)ccc1C(=O)NC[C@@H](O)[C@@H]1Cc2cc(C)ccc2CN1` [Example 125, 4-(3-Oxa-8-azabicyclo[3.2.1]octane-8-carbonyl)-2-ethoxy-N—((R)-2-hydroxy-2-((S)-6-methyl-1,2,3,4-tetrahydroisoquinolin-3-yl)ethyl)benzamide hydrochloride] was 6.63.
